Source: patent US11433090B2, “mTOR-inhibitor-containing medicine for treating or preventing ophthalmic symptoms, disorders, or diseases, and application thereof” (The Doshisha, priority 2017, dated 2022)

System: caspase 3/7
Test: Caspase-Glo 3/7 Assay in iFECD stimulated with TGF-β2
Type: cell-based, human
Details: TGF-β2 10 ng/ml, Dunnett-t test, n=5
Protocol: The medium was removed from a culture dish in which iFECDs were being cultured, and the cells were supplemented with 1×PBS (−) that was preheated to 37° C., and were washed. This was repeated twice. The cells were supplemented again with 1×PBS (−) and incubated for 3 minutes at 37° C. (5% CO2). After removing the PBS (−), the cells were supplemented with 0.05% Trypsin-EDTA (Nacalai Tesque, 32778-34) and incubated for 5 minutes at 37° C. (5% CO2). The cells were then suspended in a medium, and collected by centrifugation at 1500 rpm for 3 minutes. DMEM (Nacalai Tesque, 08456-36)+10% FBS (Biowest, S1820-500)+1% P/S (Nacalai Tesque, 26252-94) was used as the medium.
Corneal endothelial cells from immortalized FECD patients (lot: iFECD3-5) were seeded on a 96-well plate at a ratio of 4×10^3 cells per well and cultured for 24 hours at 37° C. (5% CO2) (medium: DMEM+10% FBS+1% P/S). After 24 hours, the medium was removed. Each mTOR inhibitor was added to culture the cells for 24 hours (medium: DMEM+2% FBS+1% P/S). After 24 hours, the medium was removed. Media containing 10 ng/ml of Recombinant Human TGF-β2 (Wako, 200-19911) and each mTOR inhibitor were added to culture the cells for 24 hours (medium: DMEM+2% FBS+1% P/S). After 24 hours, the cell morphology and apoptosis were observed under a phase difference microscope.
After observation, measurement of caspase 3/7 activity by Caspase-Glo® 3/7 Assay was carried out with the following procedure.
The medium was discarded to achieve 50 μl per well. 50 μl/well of Caspase Glo® 3/7 Assay Reagent (mixture of Caspase-Glo® 3/7 Assay Buffer and Caspase-Glo® 3/7 Assay Substrate) (Promega, G8091) solution was added so as to achieve 1:1 with the medium. The operations hereafter were carried out while being shaded. A shaker was used to mix the content well for two minutes at about 120 minutes^−1 to then be left for 40 minutes at room temperature. After being left, 80 μl was moved to Assay plate (Corning, 3912, Assay plate 96 well, white polystyrene) and […] was measured using GloMax-Multi Detection System (Promega, E7051).
The following mTOR inhibitors were used in this Example. • Rapamycin (Wako, #53123-88-9) • Everolimus (Cayman Chemical, #11597) • Temsirolimus (Tocris Bioscience, #5264) • PI-103 (Cayman Chemical, #10009209) • CC-223 (Cayman Chemical, #19917) • INK128 (Cayman Chemical, #11811) • AZD8055 (Cayman Chemical, #16978) • KU 0063794 (Tocris Bioscience, #3725)

| activity of caspase 3/7 compared to control (0.001 μM) | activity of caspase 3/7 compared to control (0.01 μM) | activity of caspase 3/7 compared to control (0.1 μM) | activity of caspase 3/7 compared to control (1 μM) | activity of caspase 3/7 compared to control (0.00001 μM) | activity of caspase 3/7 compared to control (0.0001 μM) | activity of caspase 3/7 compared to control (0.000001 μM) | activity of caspase 3/7 compared to control (10 μM) | SMILES |
| --- | --- | --- | --- | --- | --- | --- | --- | --- |
| significantly suppressed | significantly suppressed | significantly suppressed | significantly suppressed |  |  |  |  | CC(C)n1nc(-c2ccc3oc(N)nc3c2)c2c(N)ncnc21 [INK128] |
| significantly suppressed | significantly suppressed | significantly suppressed | significant difference was not found |  |  |  |  | Oc1cccc(-c2nc(N3CCOCC3)c3oc4ncccc4c3n2)c1 [PI-103] |
|  | significantly suppressed | significantly suppressed | significantly suppressed |  |  |  |  | COc1ccc(-c2ccc3c(N4CCOC[C@@H]4C)nc(N4CCOC[C@@H]4C)nc3n2)cc1CO [AZD8055] |

Further lines, the compound ahead of its results:

| SMILES | activity of caspase 3/7 compared to control (0.001 μM) | activity of caspase 3/7 compared to control (0.01 μM) | activity of caspase 3/7 compared to control (0.1 μM) | activity of caspase 3/7 compared to control (1 μM) | activity of caspase 3/7 compared to control (0.00001 μM) | activity of caspase 3/7 compared to control (0.0001 μM) | activity of caspase 3/7 compared to control (0.000001 μM) | activity of caspase 3/7 compared to control (10 μM) |
| --- | --- | --- | --- | --- | --- | --- | --- | --- |
| CO[C@H]1CC[C@H](N2C(=O)CNc3ncc(-c4ccc(C(C)(C)O)nc4)nc32)CC1 [CC-223] | significantly suppressed | significantly suppressed | significantly suppressed | significantly suppressed |  |  |  |  |
| CO[C@H]1C[C@@H]2CC[C@@H](C)[C@@](O)(O2)C(=O)C(=O)N2CCCC[C@H]2C(=O)O[C@H]([C@H](C)C[C@@H]2CC[C@@H](OCCO)[C@H](OC)C2)CC(=O)[C@H](C)/C=C(\C)[C@@H](O)[C@@H](OC)C(=O)[C@H](C)C[C@H](C)/C=C/C=C/C=C/1C [everolimus, Everolimus] | significantly suppressed | significantly suppressed | significantly suppressed |  | significantly suppresses | significantly suppressed |  |  |
| CO[C@H]1C[C@@H]2CC[C@@H](C)[C@@](O)(O2)C(=O)C(=O)N2CCCC[C@H]2C(=O)O[C@H]([C@H](C)C[C@@H]2CC[C@@H](OC(=O)C(C)(CO)CO)[C@H](OC)C2)CC(=O)[C@H](C)/C=C(\C)[C@@H](O)[C@@H](OC)C(=O)[C@H](C)C[C@H](C)/C=C/C=C/C=C/1C [temsirolimus, Temsirolimus] | significantly suppressed | significantly suppressed | significantly suppressed | significantly suppressed | significantly suppressed | significantly suppressed | significant difference was not found | significantly suppressed |
| COc1ccc(-c2ccc3c(N4CCOCC4)nc(N4C[C@@H](C)O[C@@H](C)C4)nc3n2)cc1CO [KU 0063794] | significant difference was not found | significant difference was not found | significantly suppressed | significantly suppressed |  |  |  |  |
